In patent US12162867B2, “Inhibitors of RNA helicase DHX9 and uses thereof” (ACCENT THERAPEUTICS, INC., priority 2022, dated 2024):
Where two headings read alike, the source gives them in different places.

Legend:
Format in all cases: cell-based
LS411N cells = experiment: DHX9 cellular proliferation assay (CellTiter-Glo), LS411N (CRC-MSI); conditions: Homo sapiens, LS-411N, LS411N, performed at Pharmaron, read-out: LS411N (CRC-MSI-H) Antiproliferative IC50
[1] = tested on: circBRIP1 in HCT116 cells; experiment: DHX9 circBRIP1 cellular target engagement SYBR Green assay (qPCR); conditions: Homo sapiens, HCT-116, circBRIP1, HCT116 cells, read-out: DHX9 Cellular Target Engagement EC50
NCI-H747 cells = experiment: DHX9 cellular proliferation assay (CellTiter-Glo), NCI-H747 (CRC-MSS); conditions: Homo sapiens, performed at Pharmaron, read-out: H747 (CRC-MSS) Antiproliferative IC50
[2] = tested on: circBRIP1 in HCT116 cells; experiment: DHX9 circBRIP1 cellular target engagement TaqMan Multiplex assay (qPCR); conditions: Homo sapiens
[3] = HCT-116, circBRIP1, HCT116 cells, * Taqman assay was used, read-out: DHX9 Cellular Target Engagement EC50
[4] = HCT-116, 72 h, circBRIP1, HCT116 cells, 72 hours, Taqman assay (marked *), read-out: DHX9 Cellular Target Engagement EC50

EC50 ([1]; SyBr assay (marked ^+)) [nM]	IC50 (NCI-H747 cells; NCI-H747, NCI-H747, CRC-MSS) [nM]	EC50 [2, 3] [µM]	Compound	IC50 (LS411N cells; CRC-MSI-H) [nM]	other results
–	–	0.0892	Cc1sc(C(=O)Nc2cc(Cl)cc(NS(C)(=O)=O)c2)cc1-c1ncccc1OC(C)c1cncc(F)c1 (stereo not shown) [Example 630]	–	IC50 (LS411N cells): 98.3 nM
–	–	0.312	CS(=O)(=O)Nc1cc(Cl)cc(NC(=O)c2cc(-c3ncc(F)cn3)n(C3CC3)c2)c1 [Example 712]	–	–
–	–	0.191	Cn1cc(C(=O)Nc2cc(Cl)cc(NS(C)(=O)=O)c2)cc1-c1ccc(N2CC(S(C)(=O)=O)C2)cn1 [Example 519]	–	–
–	–	0.292	Cc1sc(C(=O)Nc2cc(Cl)cc(NS(C)(=O)=O)c2)cc1-c1ncc(C(C)(O)C2CN(C)C2)cc1F (stereo not shown) [Example 653]	–	–
–	–	0.13	Cn1cc(C(=O)Nc2cc(Cl)cc(NS(C)(=O)=O)c2)cc1-c1ccc(N2CCN(C(=O)C(C)(C)C)CC2)cn1 [Example 591]	–	–
–	–	0.156	CCS(=O)(=O)Nc1cc(Cl)cc(NC(=O)c2cc(-c3ncc(OC(C)(C)C)cn3)c(C)s2)c1 [Example 566]	–	–
–	–	0.196	CN1CC(Oc2cnc(-c3cc(C(=O)Nc4cc(Cl)cc(NS(C)(=O)=O)c4)cn3CC(F)F)nc2)C1 [Example 679]	–	–
–	–	> 10	Cn1cc(C(=O)Nc2cc(Cl)cc(NS(=O)(=O)C3CC3)c2)cc1-c1ccc(N2CC(F)(F)C2)cn1 [Example 530]	–	–
–	–	0.543	CS(=O)(=O)Nc1cc(Cl)cc(NC(=O)c2cc(-c3ncc(F)cn3)n(CC(F)(F)F)c2)c1 [Example 562]	–	–
–	–	0.725	Cc1sc(C(=O)Nc2cc(Cl)cc(NS(C)(=O)=O)c2)cc1-c1ncc(F)cc1N1CCN(S(C)(=O)=O)CC1 [Example 506]	–	–
–	–	0.998	Cc1sc(C(=O)Nc2cc(Cl)cc(NS(C)(=O)=O)c2)cc1-c1ccc(P(C)(C)=O)cn1 [Example 647]	–	–
–	–	0.285	CS(=O)(=O)Nc1cc(Cl)cc(NC(=O)c2cc(-c3ncc(N4CC(F)(F)C4)cc3F)cs2)c1 [Example 488]	–	–
–	–	0.183	CCS(=O)(=O)Nc1cc(Cl)cc(NC(=O)c2cc(-c3ncc(F)cc3F)n(C)c2)c1 [Example 543]	–	–
–	–	9.03	Cc1sc(C(=O)Nc2cc(Cl)cc(NS(C)(=O)=O)c2)cc1-c1ncc(F)cc1N1CCS(=O)(=O)CC1 [Example 503]	–	–

Further lines, the compound ahead of its results:

Compound	EC50 ([1]; SyBr assay (marked ^+)) [nM]	IC50 (NCI-H747 cells; NCI-H747, NCI-H747, CRC-MSS) [nM]	EC50 [2, 3] [µM]	IC50 (LS411N cells; CRC-MSI-H) [nM]	other results
CCOc1cnc(-c2cc(C(=O)Nc3cc(Cl)cc(NS(C)(=O)=O)c3)cn2C)nc1 [Example 172]	135	6890	–	237	–
Cc1sc(C(=O)Nc2cc(Cl)cc(NS(C)(=O)=O)c2)cc1-c1ccc(F)cn1 [Example 35]	37.2	> 10000	–	76.8	–
CS(=O)(=O)Nc1cc(Cl)cc(NC(=O)c2cc(-c3ncccc3OCc3cccnc3)cs2)c1 [Example 217]	13.6	> 10000	–	53.3	–
CS(=O)(=O)Nc1cc(Cl)cc(NC(=O)c2cc(-c3ncccc3OCc3cccnc3)n(CC(F)(F)F)c2)c1 [Example 185]	73.3	8380	–	139	–
CS(=O)(=O)Nc1cc(Cl)cc(NC(=O)c2cc(-c3ncccc3COc3cc(F)cc(F)c3)cs2)c1 [Example 228]	48.3	> 10000	–	117	–
CCOc1ccc(-c2csc(C(=O)Nc3cc(Cl)cc(NS(C)(=O)=O)c3)c2)nc1 [Example 339]	91.8	5690	–	341	–
CS(=O)(=O)Nc1cc(Cl)cc(NC(=O)c2cnn(-c3ncccc3OCc3cccc(Cl)c3)c2)c1 [Example 70]	107	> 10000	–	375	–
CS(=O)(=O)Nc1cc(Cl)cc(NC(=O)c2cc(-c3ncccn3)cs2)c1 [Example 26]	60.9	> 10000	–	217	–
Cn1cc(C(=O)Nc2cc(Cl)cc(NS(C)(=O)=O)c2)cc1-c1ncc(N2CCC2)cn1 [Example 521]	–	–	–	–	IC50 (LS411N cells): 69 nM; EC50 ([1]; ^+ SyBr assay was used): 35.1 nM; IC50 (NCI-H747 cells; NCI-H747, NCI-H747): > 10000 nM
Cn1cc(C(=O)Nc2cc(Cl)cc(NS(C)(=O)=O)c2)cc1-c1ccc(N2CCC2)cn1 [Example 538]	–	–	–	–	IC50 (LS411N cells): 124 nM; EC50 ([1]; ^+ SyBr assay was used): 57.4 nM; IC50 (NCI-H747 cells; NCI-H747, NCI-H747): 3620 nM
Cc1sc(C(=O)Nc2cc(Cl)cc(NS(C)(=O)=O)c2)cc1-c1ncccc1OCc1ccccc1 [Example 34]	13	8670	–	14.1	–
CS(=O)(=O)Nc1cc(Cl)cc(NC(=O)c2cnn(-c3ncccc3OCc3cc(F)cc(F)c3)c2)c1 [Example 187]	–	> 10000	–	77.3	–
Cc1cccnc1-c1csc(C(=O)Nc2cc(Br)cc(NS(C)(=O)=O)c2)c1 [Example 33]	21.5	> 10000	–	116	–
CS(=O)(=O)Nc1cc(Br)cc(NC(=O)c2cc(-c3ccccc3O)cs2)c1 [Example 21]	260	> 10000	–	791	–
Cc1sc(C(=O)Nc2cc(Cl)cc(NS(C)(=O)=O)c2)cc1-c1ncccn1 [Example 22]	35.8	> 10000	–	115	–
CCOc1ccc(-c2cc(C(=O)Nc3cc(Cl)cc(NS(C)(=O)=O)c3)cn2C)nc1 [Example 572]	–	–	–	–	IC50 (LS411N cells): 144 nM; EC50 ([1]; ^+ SyBr assay was used): 55.1 nM; IC50 (NCI-H747 cells; NCI-H747, NCI-H747): > 10000 nM
CS(=O)(=O)Nc1cc(Cl)cc(NC(=O)c2cnn(-c3ncccc3OCc3cccc(F)c3)c2)c1 [Example 65]	63.1	> 10000	–	109	–
Cc1cccnc1-n1cc(C(=O)Nc2cc(Br)cc(NS(C)(=O)=O)c2)cn1 [Example 49]	434	> 10000	–	901	–
Cc1cccnc1-n1cc(C(=O)Nc2cc(Cl)cc(NS(C)(=O)=O)c2)cc1C [Example 130]	489	> 10000	–	1160	–
CS(=O)(=O)Nc1cc(Cl)cc(NC(=O)c2cnn(-c3c(F)cccc3OCc3cncc(F)c3)c2)c1 [Example 718]	–	–	–	–	IC50 (LS411N cells): 114 nM; EC50 ([1]; ^+ SyBr assay was used): 137 nM; IC50 (NCI-H747 cells; NCI-H747, NCI-H747): > 10000 nM
CS(=O)(=O)Nc1cc(Cl)cc(NC(=O)c2cnn(-c3ccccn3)c2)c1 [Example 37]	830	> 10000	–	3470	–
Cc1sc(C(=O)Nc2cc(Cl)cc(NS(C)(=O)=O)c2)cc1-c1ncc(N2CC(C(F)(F)F)C2)cc1F [Example 460, N-(3-chloro-5-(methylsulfonamido)phenyl)-4-(3-fluoro-5-(3-(trifluoromethyl)azetidin-1-yl)pyridin-2-yl)-5-methylthiophene-2-carboxamide]	–	–	–	–	IC50 (NCI-H747 cells; NCI-H747, NCI-H747): 3800 nM
CC(Oc1cccnc1-c1cc(C(=O)Nc2cc(Cl)cc(NS(C)(=O)=O)c2)cn1C)c1cc(F)cc(C(F)(F)F)c1 (single isomer, unassigned) [Example 629, N-(3-chloro-5-methanesulfonamidophenyl)-5-{3-[1-[3-fluoro-5-(trifluoromethyl)phenyl]ethoxy]pyridin-2-yl}-1-methyl-1H-pyrrole-3-carboxamide]	–	–	–	–	IC50 (LS411N cells): 69.2 nM; IC50 (NCI-H747 cells; NCI-H747, NCI-H747): > 10000 nM
Cc1sc(C(=O)Nc2cc(Cl)cc(NS(C)(=O)=O)c2)cc1-c1c(F)cc(F)cc1F [Example 378]	–	–	–	–	EC50 [2, 4]: 0.361 µM
Cc1cc(C(=O)Nc2cc(Cl)cc(NS(C)(=O)=O)c2)cn1-c1ncc(F)cc1F [Example 444]	–	–	0.16	–	–
Cc1sc(C(=O)Nc2cc(Cl)cc(NS(C)(=O)=O)c2)cc1-c1ncc(C(F)(F)F)cc1C#N [Example 367]	–	–	–	–	EC50 [2, 4]: 0.219 µM
Cc1cc(C(=O)Nc2cc(Cl)cc(NS(C)(=O)=O)c2)cn1-c1ncc(N2CCCC2=O)cn1 [Example 401]	–	–	0.135	–	–
Cn1cc(C(=O)Nc2cc(Cl)cc(NS(C)(=O)=O)c2)cc1-c1ncc(N2CC[Si](C)(C)CC2)cc1F [Example 470]	–	–	–	–	EC50 ([2]; HCT-116, read-out: DHX9 Cellular Target Engagement EC50 (μM)): 0.62 µM
